From patent publication US20230103142A1, “SMALL MOLECULE REGULATORS OF NOTCH1 AND USES THEREOF” (THE PENN STATE RESEARCH FOUNDATION, priority 2020, published 2023)
Read-outs that look alike come from different tables or passages of the source.

Experiments:
[1] = test system: Notch1/HCT116 (C4) xenografts; experiment: xenograft tumor growth study; details: 5 mg/kg intraperitoneally thrice a week, 4 weeks
Method: (§5) Xenograft studies: Six- to eight-week-old BALB/c athymic nude mice (nu/nu) (Jackson Laboratory: Bar Harbor, Me., USA) were subcutaneously injected with pCMV/HCT116 and C4 (1×10^6 cells). The monitoring and measurements were performed.

[2] = test system: pCMV/HCT116 xenografts; experiment: xenograft tumor growth study; details: 5 mg/kg intraperitoneally thrice a week, 4 weeks
Method: as §5

[3] = test system: MDA-MB-231 cells; experiment: apoptosis assay
[4] = test system: SW-620 cells; details: read-out: IC50 cell viability
Method: (§6) Six biological replicates used for MTT assays and it was repeated twice for each experiment. […] The anchorage-independent growth assay was performed and repeated in triplicate.

[5] = test system: Notch1/HCT116 clone C4; experiment: colony forming assay
Method: as §6

[6] = test system: Bladder Cancer cells (TCCSUP and HT1376); experiment: MTT assay in bladder cancer cells with low basal Notch1; details: low basal level of Notch1, 24 h
Excerpt: Six biological replicates used for MTT assays and it was repeated twice for each experiment. Data are presented, from independent experiments, as the mean±standard deviation (SEM/SD). The Student's t-test was used to calculate the statistical significance between the vehicle and treatment at each concentration. *p<0.05, **p<0.01 and ***p<0.001. […] Six biological replicates used for MTT assays and it was repeated twice for each experiment. Data are presented, from independent experiments, as the mean±standard deviation (SEM/SD). The Student's t-test was used to calculate the statistical significance between the vehicle and treatment at each concentration. *p<0.05 and # Not significant.
Six biological replicates used for MTT assays and it was repeated twice for each experiment.

[7] = test system: ubiquitin in ALDH+ cells; experiment: ubiquitin expression; assay type: cell-based
Excerpt: Commercially available positive and negative controls were used for these experiments.

[8] = test system: Notch1/HCT116 clone C5; experiment: colony forming assay
Method: as §6

[9] = test system: pCMV/HCT116 cells; experiment: colony forming assay
Method: as §6

[10] = test system: Notch2 in HCT116 cells; experiment: immunoblot with Notch2 antibody; details: HCT116, IC50 concentration, 12 h and 24 h
Excerpt: Data are presented as the mean±standard deviation (SEM/SD) of three independent experiments. The Student's t-test was used to calculate the statistical significance between the vehicle and treatment at each concentration. *p<0.05 and **p<0.01.

[11] = test system: Notch1/HCT116 clone C5; details: read-out: IC50 cell growth; C5 transfectants, 24 h
Method: (§1) Cell culture and supplies: HCT116, SW-620, TCCSUP, UMUC3, HT1376, 5637, T24 and RT4 cells were purchased from ATCC (American Type Culture Collection; Manassas, Va., USA). HCT116, T24, RT4 were maintained in McCoy's medium, TCCSUP, UMUC3, HT1376 in EMEM, SW620 in DMEM and 5637 in RPMI medium, respectively, and supplemented with 10% FBS and penicillin (100 units/mL) and streptomycin (100 units/mL; Millipore Sigma, St Louis, […]., USA) in the presence of 5% CO2 at 37° C. pCMV6-NOTCH1, vector pCMV6-Entry (NOTCH′ (NM_017617) Human ORF Clone; Origene) and NOTCH1 Human siRNA Oligo Duplex were obtained from Origene Technologies Inc. (Rockville, Md., USA). Lipofectamine 2000 reagent was used following the manufacturer's (Cat #11668019; ThermoFisher Scientific) instruction, transfection with overexpression vectors was performed with 500 ng plasmid concentration, while the siRNA was used in 25 nM concentration. Cells were allowed to be transfected for 48 hrs and later harvested or treated for further analysis. Neomycin ([…]) selection media was used to cultivate Notch1-overexpressing HCT116 clones (C1, C2, C3, C4, C5).

[12] = test system: Notch1 silenced HCT116 cells; details: vs scrambled transfected HCT116, 24 h
Method: as §1

[13] = test system: Notch1/HCT116 clone C4; details: read-out: IC50 cell growth; C4 transfectants, 24 h
Method: as §1

[14] = biological target: NRR of Notch1 in HCT116 cells (Homo sapiens, UniProt P46531); details: ASR490-treated HCT116 cells
NRR of Notch1 in HCT116 cells, sequence (P46531 19-2555): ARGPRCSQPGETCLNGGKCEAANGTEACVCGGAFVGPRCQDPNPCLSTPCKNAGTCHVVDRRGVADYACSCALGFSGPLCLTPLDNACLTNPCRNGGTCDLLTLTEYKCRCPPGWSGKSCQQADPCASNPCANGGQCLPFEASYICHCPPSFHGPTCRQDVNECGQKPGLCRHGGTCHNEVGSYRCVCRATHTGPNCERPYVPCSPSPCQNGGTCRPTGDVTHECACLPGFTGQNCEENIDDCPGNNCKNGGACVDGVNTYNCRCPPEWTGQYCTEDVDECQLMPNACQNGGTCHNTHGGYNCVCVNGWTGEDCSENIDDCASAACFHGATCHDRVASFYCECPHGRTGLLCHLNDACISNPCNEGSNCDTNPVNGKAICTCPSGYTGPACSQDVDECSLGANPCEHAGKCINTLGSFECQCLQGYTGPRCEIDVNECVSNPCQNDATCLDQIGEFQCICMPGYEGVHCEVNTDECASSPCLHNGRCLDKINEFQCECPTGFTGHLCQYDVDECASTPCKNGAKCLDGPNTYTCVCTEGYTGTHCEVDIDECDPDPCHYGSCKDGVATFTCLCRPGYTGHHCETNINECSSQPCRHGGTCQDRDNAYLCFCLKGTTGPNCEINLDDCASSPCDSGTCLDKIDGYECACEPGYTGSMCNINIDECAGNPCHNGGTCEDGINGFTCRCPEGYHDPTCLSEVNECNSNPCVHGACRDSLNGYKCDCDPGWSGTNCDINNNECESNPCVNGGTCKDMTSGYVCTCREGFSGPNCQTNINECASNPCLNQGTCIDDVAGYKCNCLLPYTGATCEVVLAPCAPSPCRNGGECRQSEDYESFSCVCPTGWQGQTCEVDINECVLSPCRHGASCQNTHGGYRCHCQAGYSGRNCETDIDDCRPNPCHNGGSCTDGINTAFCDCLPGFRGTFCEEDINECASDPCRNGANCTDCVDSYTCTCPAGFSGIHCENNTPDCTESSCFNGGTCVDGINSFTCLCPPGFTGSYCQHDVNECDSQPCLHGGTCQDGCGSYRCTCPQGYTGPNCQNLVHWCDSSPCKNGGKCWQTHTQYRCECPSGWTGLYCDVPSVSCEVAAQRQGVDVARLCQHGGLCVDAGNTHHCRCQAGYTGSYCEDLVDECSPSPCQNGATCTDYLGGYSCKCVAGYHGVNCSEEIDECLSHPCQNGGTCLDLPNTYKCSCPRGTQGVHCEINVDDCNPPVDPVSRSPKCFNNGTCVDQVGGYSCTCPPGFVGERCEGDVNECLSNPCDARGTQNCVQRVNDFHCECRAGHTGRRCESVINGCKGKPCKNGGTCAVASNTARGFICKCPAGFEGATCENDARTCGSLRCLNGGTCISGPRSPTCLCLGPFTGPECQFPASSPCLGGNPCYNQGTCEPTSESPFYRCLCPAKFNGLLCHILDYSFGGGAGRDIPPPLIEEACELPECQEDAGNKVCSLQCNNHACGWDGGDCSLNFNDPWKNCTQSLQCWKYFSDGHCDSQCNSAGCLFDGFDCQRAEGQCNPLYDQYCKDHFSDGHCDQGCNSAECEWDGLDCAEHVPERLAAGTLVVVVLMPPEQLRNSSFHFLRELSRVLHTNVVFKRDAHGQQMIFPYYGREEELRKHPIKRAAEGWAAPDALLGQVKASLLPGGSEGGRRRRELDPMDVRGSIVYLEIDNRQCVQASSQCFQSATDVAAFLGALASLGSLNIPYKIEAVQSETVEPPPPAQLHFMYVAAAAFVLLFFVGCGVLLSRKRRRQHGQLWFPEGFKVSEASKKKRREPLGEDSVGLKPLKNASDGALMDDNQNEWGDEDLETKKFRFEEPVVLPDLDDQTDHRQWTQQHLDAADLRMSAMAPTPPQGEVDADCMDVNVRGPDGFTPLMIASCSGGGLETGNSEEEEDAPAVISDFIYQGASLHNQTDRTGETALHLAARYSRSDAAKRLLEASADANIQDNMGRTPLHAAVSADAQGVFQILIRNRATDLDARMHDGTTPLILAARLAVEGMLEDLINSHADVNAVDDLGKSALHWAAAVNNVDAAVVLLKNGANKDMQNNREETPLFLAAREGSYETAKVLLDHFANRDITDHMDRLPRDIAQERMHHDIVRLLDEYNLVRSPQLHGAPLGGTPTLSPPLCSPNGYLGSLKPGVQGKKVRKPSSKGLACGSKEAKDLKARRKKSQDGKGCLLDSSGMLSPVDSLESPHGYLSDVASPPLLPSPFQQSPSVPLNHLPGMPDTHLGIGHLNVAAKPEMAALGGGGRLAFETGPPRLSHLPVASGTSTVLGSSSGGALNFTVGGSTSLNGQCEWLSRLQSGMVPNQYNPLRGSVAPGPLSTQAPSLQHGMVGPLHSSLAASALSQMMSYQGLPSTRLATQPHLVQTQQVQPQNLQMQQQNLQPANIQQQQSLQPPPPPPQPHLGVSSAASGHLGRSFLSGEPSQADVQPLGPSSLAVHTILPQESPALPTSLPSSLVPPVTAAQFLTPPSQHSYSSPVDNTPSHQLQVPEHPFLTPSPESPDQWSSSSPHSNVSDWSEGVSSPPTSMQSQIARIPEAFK
Method: (§2) Binding Studies. The protein-ligand binding was first studied by cellular thermal shift assay (CETSA) by following previously described protocol. […] Equal amount of cell lysate was used for ELISA with NRR antibody (Cat: NBP2-62557; Novus Biologicals). GloMelt Thermal Shift Protein Stability assay was performed as per the kit instructions (GloMelt™ Thermal Shift Protein Stability Kit; Biotium; Fermont, Calif.). […] A protein melt run profile was generated and Tm (melting temperature) was calculated using DNA melt curve software. To analyze protein melting, the Tm was considered at the lowest −dF/dT value (at the lowest point on the curve).

[15] = test system: purified NRR protein; details: vs vehicle (DMSO)
Method: as §2

[16] = test system: ALDH+ xenotransplanted tumors; experiment: ALDH+ xenotransplant tumor burden; details: ALDH+ xenotransplanted mice
[17] = test system: ALDH+ (BCSC) cells
Excerpt: (§3) Studies have shown that Notch1 signaling is mainstay of breast cancer stem cell (BCSC) growth.

[18] = test system: ALDH− (BC) cells
Excerpt: as §3

[19] = test system: pCMV/HCT116 cells; details: pCMV/HCT116, IC50 dose, 24 h
Method: (§4) Cell invasion and migration assays: The invasive capability of pCMV/HCT116 and Notch1/HCT116 was evaluated in Boyden chambers, as described in earlier studies. HCT 116, SW-620, pCMV/HCT116, and Notch1/HCT116 cells were analyzed for migration capability with protocols already described in an earlier study. All experiments were performed in triplicate to achieve statistical relevance.

[20] = test system: Notch1/HCT116 clone C5; details: C5, IC50 dose, 24 h
Method: as §4

[21] = test system: HCT116 cells; details: HCT116, 24 h
Method: as §4

[22] = test system: Notch1/HCT116 clone C4; details: C4, IC50 dose, 24 h
Method: as §4

[23] = test system: SW620 cells; details: SW620, 24 h
Method: as §4

[24] = read-out: IC 50 cell growth, 24 h
[25] = read-out: IC 50 cell growth, 48 h

## CC1=C(CO)C(=O)O[C@@H]([C@@H](C)[C@H]2CC[C@H]3[C@@H]4C[C@H]5O[C@]56[C@@H](OC(=O)c5ccccn5)C=CC(=O)[C@]6(C)[C@H]4CC[C@]23C)C1 [ASR490, Pyridine-2-carboxylic acid {17-[1-(5-hydroxymethyl-4-methyl-6-oxo-3,6-dihydro-2H-pyran-2-yl)-ethyl]-10,13-dimethyl-1-oxo, 4,6,7,8,9,10,11,12,13,14,15,16,17-tetradecahydro-20-oxacyclopropa[5,6]cyclopenta[a]phenanthren-4-yl}ester]
[1]
  tumor growth: significant tumor growth inhibition
500 mg/kg vs 5 mg/kg
  safe dose relative to dose used in efficacy studies: 100 times
nu/nu mice
  safe dose (MTD check): ≤ 500 mg/kg
[2]
  tumor growth: significant tumor growth inhibition
[3]; MDA MB-231, 24 h
  apoptosis: approximately 20
[3]; MDA MB-231, 48 h
  apoptosis: ~43
[4]; SW-620, 24-h
  IC50: 1.2 µM
[4]; SW-620, 48-h
  IC50: 0.85 µM
[5]
  reduction of colony forming ability: 38%
[6]
  growth of bladder cancer cells: failed inhibit their growth
[7]
  ubiquitin expression: time dependent increased ubiquitin expression
[8]
  reduction of colony forming ability: 26.66%
[9]
  reduction of colony forming ability: 22.3%
[10]
  Notch2 expression: no change
[11]
  IC50: 1.1 µM
[12]
  growth of Notch1 silenced cells: failed to inhibit the growth
[13]
  IC50: 0.8 µM
[14]
  binding to NRR by CETSA: binds directly to NRR
[15]
  thermal stabilization of NRR protein: increased stabilization of NRR protein
[16]
  tumor burden: significantly reduced tumor burden
[17]; [24]
  IC50: 0.77 µM
[17]; [25]
  IC50: 0.443 µM
[18]; [24]
  IC50: 1.6 µM
[18]; [25]
  IC50: 0.836 µM
[19]
  decline in invasive capacity: 40%
  decline in migratory potential: 25.11%
[20]
  decline in invasive capacity: 65.5%
[21]
  inhibition of migratory capability: 25.18%
[22]
  decline in invasive capacity: 60.75%
[23]
  inhibition of migratory capability: 32.36%
